According to patent US9220928B2, “Plant extracts from Acronychia species and their use” (EcoBiotics Ltd, priority 2008, dated 2015):

Test system: Streptococcus salivarius K40
Test: Antibacterial growth inhibition assay
Type: cell-based
Settings: HPLC fractions and two pure compounds, further test; Table 9
Protocol: The bacteria used in these studies were: • Streptococcus salivarius […] • Bacillus subtilis All antibacterial assays were carried out in a laminar flow cabinet using the protocol described below. Growth or no-growth was assessed visually and by ELISA reader. […] This was then placed in the bacterial shaker at 37° C. at 210 rpm overnight. • 2) A blank reading was made on the spectrophotometer at 600 nm using […] of Columbia broth. A reading of 200 μL of the starter culture was then taken. • 3) In calculations, a final concentration of 0.005 was desired. The formula used for dilution of x mL starter was: x*A600=0.005*desired volume • 4) 90 uL of MeOH was added to each well of a 96 well flat bottomed plate. 10 μL of sample was added to the top well and diluted 1:10 down the plate. Alternatively the top rows were left empty of MeOH and 100 μL of sample was added and then diluted at 1:10 down the plate. • 5) The plates were then left to dry in a biological safety cabinet for 2-3 hours or until all solvent had evaporated off the plate. • 6) 100 μL of diluted bacterial culture was then added to each well of the plate. The plate was then placed in the bacterial incubator at 37° C. overnight. […] For quantitation, plates were read at 405 nm (ELISA). […]

SMILES | Amount of fraction giving 100% inhibition of growth of S. salivarius
CC(C)=CCC/C(C)=C/CC/C(C)=C/COc1ccc(CCC(=O)O)cc1 [EBC111, 3-(4-farnesyloxyphenyl)propionic acid] | 10Ag
COc1cc(CCC(=O)O)ccc1OC/C=C(\C)CC/C=C(\C)CCC=C(C)C [EBC125, 3-(4-farnesyloxy-3-methoxyphenyl)propionic acid] | 1 µL
